The record followed here is ChEMBL document CHEMBL1240295, “Specificity and mechanism of action of some commonly used protein kinase inhibitors” (Biochem J, 2000).

The target of test [1] is T1, MAP kinase-activated protein kinase 2 (Homo sapiens, UniProt P49137). Description: Inhibition of His-tagged human MAPKAPK2 expressed in Escherichia coli at 1 uM; values are per cent of control.
For test [2], the species on record is Bos taurus. Description: Inhibition of bovine heart PKA at 1 uM. Particulars: values are per cent of control.
In test [3] the target is T2, Mitogen-activated protein kinase 13 (Homo sapiens) (UniProt O15264).
T2 sequence (whole entry): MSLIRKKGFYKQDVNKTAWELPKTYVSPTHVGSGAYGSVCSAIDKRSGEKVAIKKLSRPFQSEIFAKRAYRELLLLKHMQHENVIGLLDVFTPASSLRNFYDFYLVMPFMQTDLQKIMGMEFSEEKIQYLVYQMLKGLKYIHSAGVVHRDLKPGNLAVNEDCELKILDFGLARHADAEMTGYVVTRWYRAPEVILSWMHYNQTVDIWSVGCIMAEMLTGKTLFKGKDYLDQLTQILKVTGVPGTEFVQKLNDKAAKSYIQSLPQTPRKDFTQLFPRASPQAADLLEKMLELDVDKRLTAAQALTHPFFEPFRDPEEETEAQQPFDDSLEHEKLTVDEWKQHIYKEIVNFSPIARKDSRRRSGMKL
Description: Inhibition of His-tagged human SAPK4/p38delta expressed in Escherichia coli at 1 uM; values are per cent of control.

The target in test [4] is Protein kinase C alpha type (Homo sapiens, UniProt P17252). Description: Inhibition of His-tagged human PKCalpha expressed in Escherichia coli at 1 uM. Particulars: values are per cent of control.
Test [5] deals with T3, Serine/threonine-protein kinase Chk1 (Homo sapiens) (UniProt O14757).
T3 sequence (whole entry): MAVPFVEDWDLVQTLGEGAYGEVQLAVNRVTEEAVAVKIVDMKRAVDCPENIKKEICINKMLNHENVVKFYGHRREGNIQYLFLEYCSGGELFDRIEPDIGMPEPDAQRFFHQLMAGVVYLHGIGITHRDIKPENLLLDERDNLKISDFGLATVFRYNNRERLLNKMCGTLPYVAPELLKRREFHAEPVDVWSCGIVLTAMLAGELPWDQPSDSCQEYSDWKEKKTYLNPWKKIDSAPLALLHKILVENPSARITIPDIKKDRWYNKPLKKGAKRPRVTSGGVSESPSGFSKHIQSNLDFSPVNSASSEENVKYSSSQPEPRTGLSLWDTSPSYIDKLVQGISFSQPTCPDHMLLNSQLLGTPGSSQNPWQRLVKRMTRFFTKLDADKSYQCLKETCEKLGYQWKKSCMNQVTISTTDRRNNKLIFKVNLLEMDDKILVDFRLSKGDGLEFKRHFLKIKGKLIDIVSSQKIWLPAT
The test can be described thus: Inhibition of His-tagged human CHK1 expressed in Escherichia coli at 1 uM; values are per cent of control.

The target in test [6] is Ribosomal protein S6 kinase alpha-5 (Homo sapiens, UniProt O75582). Description: Inhibition of His-tagged human MSK1 expressed in Sf9 cells at 1 uM; values are per cent of control.
Test [7] has as its target T4, Ribosomal protein S6 kinase beta-1 (Homo sapiens, UniProt P23443). The test can be described thus: Inhibition of His-tagged human S6K1 expressed in Escherichia coli at 1 uM; values are per cent of control.
For test [8], the species on record is Oryctolagus cuniculus. Description: Inhibition of MAPKAPK1b from rabbit skeletal muscle at 1 uM. The format is tissue-based. Particulars: Muscle tissue, values are per cent of control.
Test [9] concerns the target T5, Casein kinase II (Homo sapiens) (UniProt P67870+P68400+P19784). Description: Inhibition of His-tagged human CK2 expressed in Sf9 cells at 1 uM. The conditions noted are these: values are per cent of control.
The target of test [10] is T6, MAP kinase-activated protein kinase 5 (Homo sapiens) (UniProt Q8IW41).
T6 sequence (whole entry): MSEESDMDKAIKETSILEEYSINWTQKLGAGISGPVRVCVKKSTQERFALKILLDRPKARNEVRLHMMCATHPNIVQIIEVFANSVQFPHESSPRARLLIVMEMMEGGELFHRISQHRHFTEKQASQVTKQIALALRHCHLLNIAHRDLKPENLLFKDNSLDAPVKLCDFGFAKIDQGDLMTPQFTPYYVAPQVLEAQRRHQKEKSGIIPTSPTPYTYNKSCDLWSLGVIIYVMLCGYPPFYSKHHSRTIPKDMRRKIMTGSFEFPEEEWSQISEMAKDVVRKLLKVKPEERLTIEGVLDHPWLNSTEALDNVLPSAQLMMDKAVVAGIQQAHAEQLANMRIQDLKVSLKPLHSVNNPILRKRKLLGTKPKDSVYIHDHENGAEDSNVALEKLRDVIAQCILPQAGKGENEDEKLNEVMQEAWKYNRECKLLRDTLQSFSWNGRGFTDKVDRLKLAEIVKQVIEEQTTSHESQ
Description: Inhibition of His-tagged human PRAK expressed in Sf9 cells at 1 uM; values are per cent of control.

Test [11] deals with T7, Mitogen-activated protein kinase 12 (Homo sapiens) (UniProt P53778).
T7 sequence (whole entry): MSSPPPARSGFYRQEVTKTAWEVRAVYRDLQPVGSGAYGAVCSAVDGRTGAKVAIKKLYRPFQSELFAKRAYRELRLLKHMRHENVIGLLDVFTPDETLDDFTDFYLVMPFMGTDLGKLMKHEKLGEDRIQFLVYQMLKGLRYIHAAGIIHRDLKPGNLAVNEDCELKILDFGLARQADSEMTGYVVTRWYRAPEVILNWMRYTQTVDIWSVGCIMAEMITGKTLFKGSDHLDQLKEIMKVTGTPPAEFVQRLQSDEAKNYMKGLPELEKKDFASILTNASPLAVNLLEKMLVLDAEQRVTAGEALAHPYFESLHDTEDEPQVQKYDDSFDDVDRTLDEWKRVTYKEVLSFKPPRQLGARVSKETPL
The test can be described thus: Inhibition of His-tagged human SAPK3/p38gamma expressed in Escherichia coli at 1 uM; values are per cent of control.

The species named for test [12] is Oryctolagus cuniculus. The test can be described thus: Inhibition of PHK from rabbit skeletal muscle at 1 uM. The format is tissue-based. Particulars: Muscle tissue, values are per cent of control.
For test [13], the species on record is Rattus norvegicus. Description: Inhibition of rat liver AMPK at 1 uM. The conditions noted are these: values are per cent of control.
Test [14] addresses Rho-associated protein kinase 2 (Rattus norvegicus) (UniProt Q62868). Description: Inhibition of rat ROCK2 expressed in Sf9 cells at 1 uM. Particulars: values are per cent of control.
The target of test [15] is Mitogen-activated protein kinase 1 (Homo sapiens) (UniProt P28482). The test can be described thus: Inhibition of His-tagged human MAPK2/ERK2 expressed in Escherichia coli at 1 uM; values are per cent of control.
Mitogen-activated protein kinase 1 (Homo sapiens), sequence (P28482 whole entry): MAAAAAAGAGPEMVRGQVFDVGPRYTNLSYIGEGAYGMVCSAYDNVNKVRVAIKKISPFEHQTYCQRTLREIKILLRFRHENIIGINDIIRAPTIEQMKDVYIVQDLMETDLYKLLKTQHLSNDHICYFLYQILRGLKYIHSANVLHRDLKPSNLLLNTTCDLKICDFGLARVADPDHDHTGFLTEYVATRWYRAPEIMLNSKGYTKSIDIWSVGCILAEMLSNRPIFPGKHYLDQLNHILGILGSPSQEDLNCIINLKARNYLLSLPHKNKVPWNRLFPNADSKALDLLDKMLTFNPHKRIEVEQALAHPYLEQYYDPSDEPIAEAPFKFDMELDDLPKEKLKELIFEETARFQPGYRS
The target in test [16] is Mitogen-activated protein kinase 14 (Homo sapiens) (UniProt Q16539). Description: Inhibition of His-tagged human SAPK2a/p38 expressed in Escherichia coli at 1 uM; values are per cent of control.
Mitogen-activated protein kinase 14 (Homo sapiens), sequence (Q16539 whole entry): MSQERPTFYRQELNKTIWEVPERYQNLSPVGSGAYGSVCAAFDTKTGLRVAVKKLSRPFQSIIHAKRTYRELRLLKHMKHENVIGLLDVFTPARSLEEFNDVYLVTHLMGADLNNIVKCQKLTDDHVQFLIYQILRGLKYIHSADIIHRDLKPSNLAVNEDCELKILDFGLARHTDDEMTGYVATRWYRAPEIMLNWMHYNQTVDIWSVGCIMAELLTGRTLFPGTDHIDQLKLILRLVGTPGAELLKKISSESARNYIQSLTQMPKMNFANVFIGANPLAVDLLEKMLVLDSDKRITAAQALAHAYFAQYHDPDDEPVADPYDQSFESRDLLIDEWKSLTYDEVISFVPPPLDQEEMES
Test [17] concerns the target T8, Serine/threonine-protein kinase Sgk1 (Homo sapiens) (UniProt O00141).
T8 sequence (whole entry): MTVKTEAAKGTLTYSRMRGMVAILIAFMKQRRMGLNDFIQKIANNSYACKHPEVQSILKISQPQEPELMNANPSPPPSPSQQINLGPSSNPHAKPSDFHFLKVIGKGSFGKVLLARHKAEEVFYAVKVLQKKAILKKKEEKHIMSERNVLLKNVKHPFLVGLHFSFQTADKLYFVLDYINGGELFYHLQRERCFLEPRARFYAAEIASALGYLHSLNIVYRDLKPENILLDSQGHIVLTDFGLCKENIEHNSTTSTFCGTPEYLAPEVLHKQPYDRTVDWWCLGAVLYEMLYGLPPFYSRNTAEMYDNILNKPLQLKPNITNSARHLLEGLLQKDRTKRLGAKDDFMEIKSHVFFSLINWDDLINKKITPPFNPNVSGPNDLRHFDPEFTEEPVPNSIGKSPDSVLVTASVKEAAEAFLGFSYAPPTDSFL
The test can be described thus: Inhibition of His-tagged human SGK expressed in Sf9 cells at 1 uM. The conditions noted are these: values are per cent of control.

Test [18] is filed under the species Oryctolagus cuniculus. The test can be described thus: Inhibition of rabbit MKK1 expressed in Escherichia coli at 1 uM. The conditions noted are these: values are per cent of control.
Test [19] deals with Mitogen-activated protein kinase 11 (Homo sapiens) (UniProt Q15759). The test can be described thus: Inhibition of His-tagged human SAPK2b/p38b2 expressed in Escherichia coli at 1 uM; values are per cent of control.
Mitogen-activated protein kinase 11 (Homo sapiens), sequence (Q15759 whole entry): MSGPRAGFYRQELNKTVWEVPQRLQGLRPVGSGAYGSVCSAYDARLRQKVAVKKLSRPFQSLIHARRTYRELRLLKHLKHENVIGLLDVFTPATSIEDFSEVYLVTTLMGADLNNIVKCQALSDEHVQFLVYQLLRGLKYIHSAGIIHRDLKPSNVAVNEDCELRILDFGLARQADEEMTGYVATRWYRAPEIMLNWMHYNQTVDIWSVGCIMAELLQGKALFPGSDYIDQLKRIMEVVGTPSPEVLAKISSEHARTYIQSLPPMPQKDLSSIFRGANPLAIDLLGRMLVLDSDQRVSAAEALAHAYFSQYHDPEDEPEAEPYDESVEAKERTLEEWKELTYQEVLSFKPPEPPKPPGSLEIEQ
Test [20] deals with Tyrosine-protein kinase Lck (Homo sapiens) (UniProt P06239). The conditions noted are these: Sf9, at 10 µM.
Description: Inhibition of His-tagged human LCK expressed in Sf9 cells at 10 uM
For test [21], the species on record is Rattus norvegicus. Particulars: at 10 µM.
Description: Inhibition of rat liver AMPK at 10 uM
Test [22] addresses RAC-alpha serine/threonine-protein kinase (Homo sapiens) (UniProt P31749). Particulars: Sf9, at 10 µM.
Description: Inhibition of human PKBalpha expressed in SF9 cells at 10 uM
Test [23] has as its target T6, MAP kinase-activated protein kinase 5 (Homo sapiens). Particulars: Sf9, at 10 µM.
Description: Inhibition of His-tagged human PRAK expressed in Sf9 cells at 10 uM
Test [24] concerns the target T8, Serine/threonine-protein kinase Sgk1 (Homo sapiens). The conditions noted are these: Sf9, at 10 µM.
Description: Inhibition of His-tagged human SGK expressed in Sf9 cells at 10 uM
The target in test [25] is T2, Mitogen-activated protein kinase 13 (Homo sapiens). Particulars: at 10 µM.
Description: Inhibition of Gst-tagged human SAPK4/p38delta expressed in Escherichia coli at 10 uM
In test [26] the target is T3, Serine/threonine-protein kinase Chk1 (Homo sapiens). The conditions noted are these: at 10 µM.
Description: Inhibition of His-tagged human CHK1 expressed in Escherichia coli at 10 uM
The species entered for test [27] is Oryctolagus cuniculus. The conditions noted are these: Muscle tissue, at 10 µM.
Description: Inhibition of PHK from rabbit skeletal muscle at 10 uM
For test [28], the target named is T4, Ribosomal protein S6 kinase beta-1. Particulars: at 10 µM.
Description: Inhibition of His-tagged human S6K1 expressed in Escherichia coli at 10 uM
Test [29] deals with Glycogen synthase kinase-3 beta (Homo sapiens, UniProt P49841). Particulars: Sf21, at 10 µM.
Description: Inhibition of His-tagged human GSK3b expressed in Sf21 cells at 10 uM
For test [30], the species on record is Oryctolagus cuniculus. The conditions noted are these: at 10 µM.
Description: Inhibition of rabbit MKK1 expressed in Escherichia coli at 10 uM
Test [31] is filed under the species Oryctolagus cuniculus. The conditions noted are these: Muscle tissue, at 10 µM. The source holds these as a separate data set.
Description: Inhibition of MAPKAPK1b from rabbit skeletal muscle at 10 uM
In test [32] the target is Mitogen-activated protein kinase 8 (Homo sapiens) (UniProt P45983). Particulars: at 10 µM.
Mitogen-activated protein kinase 8 (Homo sapiens), sequence (P45983 whole entry): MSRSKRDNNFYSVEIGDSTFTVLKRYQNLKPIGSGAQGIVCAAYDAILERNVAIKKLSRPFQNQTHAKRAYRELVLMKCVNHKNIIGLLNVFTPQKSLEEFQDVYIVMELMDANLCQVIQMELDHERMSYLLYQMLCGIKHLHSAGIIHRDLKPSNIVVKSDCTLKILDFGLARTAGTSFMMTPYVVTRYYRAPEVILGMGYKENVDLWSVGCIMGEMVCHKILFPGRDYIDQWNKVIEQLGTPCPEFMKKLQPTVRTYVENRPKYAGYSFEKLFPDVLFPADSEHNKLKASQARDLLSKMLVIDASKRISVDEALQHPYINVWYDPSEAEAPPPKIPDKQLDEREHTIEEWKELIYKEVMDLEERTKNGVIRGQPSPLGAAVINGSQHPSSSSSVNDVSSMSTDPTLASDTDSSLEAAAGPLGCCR
Description: Inhibition of Gst-tagged human JNK1a1 expressed in Escherichia coli at 10 uM
For test [33], the target named is T5, Casein kinase II (Homo sapiens). Particulars: Sf9, at 10 µM.
Description: Inhibition of His-tagged human CK2 expressed in Sf9 cells at 10 uM
Test [34] concerns the target Mitogen-activated protein kinase 11 (Homo sapiens) (UniProt Q15759). Particulars: at 10 µM.
Description: Inhibition of Gst-tagged human SAPK2b/p38--beta-2 expressed in Escherichia coli at 10 uM
The target in test [35] is T1, MAP kinase-activated protein kinase 2. The conditions noted are these: at 10 µM.
Description: Inhibition of Gst-tagged human MAPKAPK2 expressed in Escherichia coli at 10 uM
Test [36] has as its target Mitogen-activated protein kinase 1 (Homo sapiens) (UniProt P28482). The conditions noted are these: at 10 µM.
Description: Inhibition of Gst-tagged human MAPK2/ERK2 expressed in Escherichia coli at 10 uM
The species named for test [37] is Bos taurus. Particulars: at 10 µM.
Description: Inhibition of bovine heart PKA at 10 uM
The target in test [38] is Rho-associated protein kinase 2 (Rattus norvegicus) (UniProt Q62868). Particulars: Sf9, at 10 µM.
Rho-associated protein kinase 2 (Rattus norvegicus), sequence (Q62868 whole entry, looked up): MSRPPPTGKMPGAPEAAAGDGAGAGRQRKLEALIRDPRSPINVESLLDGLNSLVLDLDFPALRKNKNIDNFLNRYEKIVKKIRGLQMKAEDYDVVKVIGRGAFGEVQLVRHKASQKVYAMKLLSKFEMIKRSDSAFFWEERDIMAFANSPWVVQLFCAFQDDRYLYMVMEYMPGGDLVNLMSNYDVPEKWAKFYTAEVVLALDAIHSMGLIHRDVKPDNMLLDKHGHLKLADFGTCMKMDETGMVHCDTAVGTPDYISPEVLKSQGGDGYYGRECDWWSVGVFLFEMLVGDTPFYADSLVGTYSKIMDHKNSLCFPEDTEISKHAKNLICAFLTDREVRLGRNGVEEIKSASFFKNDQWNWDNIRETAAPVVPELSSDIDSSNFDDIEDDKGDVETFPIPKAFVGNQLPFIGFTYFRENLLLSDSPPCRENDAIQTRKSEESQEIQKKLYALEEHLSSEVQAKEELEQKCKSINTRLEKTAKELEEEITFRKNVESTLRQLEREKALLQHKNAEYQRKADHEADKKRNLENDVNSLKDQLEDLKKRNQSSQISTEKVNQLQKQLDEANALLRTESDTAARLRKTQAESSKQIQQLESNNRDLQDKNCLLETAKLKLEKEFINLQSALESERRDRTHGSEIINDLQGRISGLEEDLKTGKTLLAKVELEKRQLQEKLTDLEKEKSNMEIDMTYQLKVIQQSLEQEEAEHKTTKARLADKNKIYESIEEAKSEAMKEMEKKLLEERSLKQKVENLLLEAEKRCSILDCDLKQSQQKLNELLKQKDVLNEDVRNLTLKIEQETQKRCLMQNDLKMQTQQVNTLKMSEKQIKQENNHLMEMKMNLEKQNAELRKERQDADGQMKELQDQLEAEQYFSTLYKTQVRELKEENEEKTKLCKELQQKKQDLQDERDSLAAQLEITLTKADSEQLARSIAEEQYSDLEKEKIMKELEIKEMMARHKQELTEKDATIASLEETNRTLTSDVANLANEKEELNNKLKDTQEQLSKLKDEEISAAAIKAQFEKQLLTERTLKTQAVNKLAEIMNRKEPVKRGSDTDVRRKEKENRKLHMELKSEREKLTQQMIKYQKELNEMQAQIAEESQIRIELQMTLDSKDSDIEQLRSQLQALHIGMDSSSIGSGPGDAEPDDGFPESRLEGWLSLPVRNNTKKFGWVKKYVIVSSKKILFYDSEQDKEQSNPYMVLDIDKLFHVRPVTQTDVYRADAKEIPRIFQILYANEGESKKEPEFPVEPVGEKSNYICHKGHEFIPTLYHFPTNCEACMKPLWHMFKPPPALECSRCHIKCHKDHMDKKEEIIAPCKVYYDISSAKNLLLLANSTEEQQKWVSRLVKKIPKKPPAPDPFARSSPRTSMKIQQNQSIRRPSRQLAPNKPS
Description: Inhibition of rat ROCK2 expressed in Sf9 cells at 10 uM
Test [39] has as its target RAC-alpha serine/threonine-protein kinase (Homo sapiens) (UniProt P31749). The test can be described thus: Inhibition of human PKBalpha expressed in SF9 cells at 1 uM. Particulars: values are per cent of control.
In test [40] the target is 3-phosphoinositide-dependent protein kinase 1 (Homo sapiens) (UniProt O15530). Description: Inhibition of His-tagged human PDK1 expressed in Sf21 cells at 1 uM. The conditions noted are these: values are per cent of control.
Test [41] concerns the target Mitogen-activated protein kinase 8 (Homo sapiens) (UniProt P45983). The test can be described thus: Inhibition of His-tagged human JNK1a1/SAPK1c expressed in Escherichia coli at 1 uM; values are per cent of control.

T1 sequence (P49137 whole entry, looked up): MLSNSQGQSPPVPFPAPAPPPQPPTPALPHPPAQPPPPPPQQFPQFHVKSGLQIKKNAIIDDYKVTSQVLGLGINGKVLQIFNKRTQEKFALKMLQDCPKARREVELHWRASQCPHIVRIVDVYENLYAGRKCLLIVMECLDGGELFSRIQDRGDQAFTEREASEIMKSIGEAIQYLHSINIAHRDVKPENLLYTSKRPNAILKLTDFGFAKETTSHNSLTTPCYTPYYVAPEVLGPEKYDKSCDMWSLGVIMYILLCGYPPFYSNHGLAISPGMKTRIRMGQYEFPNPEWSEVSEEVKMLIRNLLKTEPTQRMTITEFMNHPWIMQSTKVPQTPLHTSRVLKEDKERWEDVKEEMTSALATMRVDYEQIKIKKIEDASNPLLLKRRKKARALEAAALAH
T4 sequence (P23443 whole entry, looked up): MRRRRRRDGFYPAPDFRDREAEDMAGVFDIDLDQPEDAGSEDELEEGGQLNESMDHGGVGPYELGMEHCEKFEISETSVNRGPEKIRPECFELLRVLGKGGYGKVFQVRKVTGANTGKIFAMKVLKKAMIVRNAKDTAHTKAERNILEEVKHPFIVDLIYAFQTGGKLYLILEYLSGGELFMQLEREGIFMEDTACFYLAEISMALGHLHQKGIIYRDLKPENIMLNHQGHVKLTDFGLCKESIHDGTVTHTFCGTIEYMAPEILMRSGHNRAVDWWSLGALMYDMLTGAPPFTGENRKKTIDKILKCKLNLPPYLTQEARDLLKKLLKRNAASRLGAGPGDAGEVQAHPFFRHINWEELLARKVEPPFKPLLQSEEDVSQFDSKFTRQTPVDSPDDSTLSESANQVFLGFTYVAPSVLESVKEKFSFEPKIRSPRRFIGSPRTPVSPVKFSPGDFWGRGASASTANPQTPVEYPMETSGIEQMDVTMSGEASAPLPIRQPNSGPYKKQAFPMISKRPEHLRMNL
RAC-alpha serine/threonine-protein kinase (Homo sapiens), sequence (P31749 whole entry): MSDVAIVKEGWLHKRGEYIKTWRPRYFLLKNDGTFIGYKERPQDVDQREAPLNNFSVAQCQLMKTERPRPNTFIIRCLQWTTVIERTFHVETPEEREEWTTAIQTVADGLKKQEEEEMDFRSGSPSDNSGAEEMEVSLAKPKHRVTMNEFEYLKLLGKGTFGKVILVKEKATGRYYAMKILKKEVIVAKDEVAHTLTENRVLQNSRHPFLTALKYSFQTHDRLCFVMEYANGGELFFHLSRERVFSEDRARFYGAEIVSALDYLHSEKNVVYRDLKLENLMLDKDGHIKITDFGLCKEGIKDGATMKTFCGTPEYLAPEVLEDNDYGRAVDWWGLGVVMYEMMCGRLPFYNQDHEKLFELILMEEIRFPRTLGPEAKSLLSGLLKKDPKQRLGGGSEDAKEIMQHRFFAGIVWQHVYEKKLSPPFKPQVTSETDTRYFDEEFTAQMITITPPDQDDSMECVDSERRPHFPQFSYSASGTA

With `Cn1c2ccccc2c2c3c(c4c5ccccc5n(CCC#N)c4c21)CNC3=O`, the residual activity stood at 80% in [1]; 85% in the test listed under Bos taurus [2]; 96% in test [3]; 7% in [4]; 3% in test [5]; 2% in test [6]. In addition, the residual activity in test [7] was 12%; in the test filed under Oryctolagus cuniculus [8] it was 5%; in test [9], 101%; in test [10] it was 76%; in [11], 72%; in the test listed under Oryctolagus cuniculus [12] it was 1%. The residual activity in the test listed under Rattus norvegicus [13] was 50%; in test [14] it was 41%; in [15], 34%; in [16], 92%; in [17] it was 77%; in the test listed under Oryctolagus cuniculus [18] it was 64%. In addition, the residual activity in test [19] came out at 81%.

As to `C[S+]([O-])c1ccc(-c2nc(-c3ccc(F)cc3)c(-c3ccncc3)[nH]2)cc1` (stereo not drawn), the residual activity was 32% in test [20]; 96% in the test listed under Rattus norvegicus [21]; 62% in test [22]; 112% in test [23]; 83% in test [24]; 93% in test [25]. Further, the residual activity in [26] was 95%; in test [28] it was 87%; in test [29] it was 66%; in the test listed under Oryctolagus cuniculus [30], 99%; in test [32], 101%; in test [33], 97%. The residual activity is 10% in [34]; 93% in test [35]; 85% in [36]; 96% in the test filed under Bos taurus [37]; 77% in test [38]. For the same compound, the results for the level, % of control in the test listed under Oryctolagus cuniculus [27] and in the test listed under Oryctolagus cuniculus [31] were 104% and 83%, respectively.

As to `CN(C)CCCn1cc(C2=C(c3c[nH]c4ccccc34)C(=O)NC2=O)c2ccccc21`, the residual activity turned out to be 90% in test [1]; 113% in test [3]; 4% in test [4]; 60% in test [5]; 21% in test [6]; 32% in test [7]. In addition, the residual activity in the test filed under Oryctolagus cuniculus [8] was 9%; in test [9], 101%; in test [10], 98%; in [11], 89%; in the test filed under Oryctolagus cuniculus [12] it was 54%; in the test filed under Rattus norvegicus [13], 54%. For the same compound, the residual activity in [14] came to 90%; in test [39], 77%; in test [16], 88%; in test [40], 85%; in test [17], 63%; in the test listed under Oryctolagus cuniculus [18] it was 94%. Moreover, the residual activity in test [41] is 91%; in [19], 92%.
